“And” between values parts separate entries of the source, which are not always exact repeats. Equal entries are not always repeated.
Columns and labels:
[1] = system: rabbit skeletal myofibrils; test: Myofibrillar contractility assay (incubated myofibrils, 1 mM ATP); assay type: biochemical
[2] = molecular target: T1, cardiac muscle myosin S2 peptide E930del (MYH7 E930del) (Homo sapiens, UniProt P12883, DEL931-931); test: GFS, uncoiling of E930del cardiac myosin S2 peptide dimer; assay type: biochemical; details: length 10 nm; in presence of stabilizer; ± SEM
T1 construct: host or cells: chemical synthesis
T1 sequence (P12883 with tags, fused parts or gaps DEL931-931): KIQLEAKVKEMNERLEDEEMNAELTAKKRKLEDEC
Excerpt: 3-aminopropyltriethoxysilane, acetone, coupling buffer (0.01 M pyridine in water with pH 6.0), 5% glutaraldehyde, quenching solution (1 M glycine in water with pH 7.0), blocking buffer (0.01 M Tris, 0.1% sodium azide, 0.1% bovine serum albumin, 0.15 M sodium chloride, and 0.001 M ethylenediaminetetraacetic acid with pH 7.0), wash buffer (0.01 M Tris, 0.1% sodium azide, 0.15 M sodium chloride, and 0.001 M ethylenediaminetetraacetic acid with pH 7.0) low salt buffer (0.1 M potassium chloride, 0.02 M imidazole, 5 mM magnesium chloride, with pH 7.0), 1-ethyl-3-(3-dimethyaminopropyl) carbodiimide, N-hydroxysuccinamide, iodoacetamide-succinimidyl ester, 8M urea solution (50 mM imidazole and 0.1 mM tris (2-carboxyethyl) phosphine with pH 7.0) monodisperse silica beads, glass slides, glass coverslips, vacuum grease, rabbit skeletal myosin, purified actin (G-actin), 1 μM human β-cardiac myosin S2 peptide, 1 μM human β-cardiac mutants myosin S2 peptide (E930del and E924K), 1 μM human skeletal myosin S2 peptide, 1 μM human smooth myosin S2 peptide, stabilizer peptide, and destabilizer peptide. A light microscope with an objective lens of 10× was mounted on an alt-azimuthal mount. A digital video camera of Sony, XCD-V60 was replaced with the ocular lenses. Extension springs on steel bracket held the alt-azimuthal mount suspended.
Gravitational force spectroscopy (GFS), is a single molecule force spectroscopy that utilizes gravitational force to measure absolute length of a single molecule at the given force calculated by the density of the bead suspending the molecule. This technique was discovered and developed in Root lab, which measures the forces in piconewton and sub-piconewton levels. Other than absolute length of a molecule, GFS measures force range required to uncoil, stretch or extend the molecule yielding a force-distance profile for the suspended molecule. Besides that, based on the force-distance profile, number of amino acids within the molecule can be calculated. […] The GFS allowed to test the flexibility or stability of a single molecule of myosin S2 peptide and also for the S2 peptides treated with anti-S2 peptides. Flexibility of myosin S2 is not dependent on assembly myosin as a thick filament or myosin in its single molecule form. […]
Free fall mode, another measurement variant of GFS which allows the user to get a force distance profile on a single molecule experiencing the gravitational force. […] During the free fall mode, GFS has a single molecule which is suspended within an immobile edge and mobile bead will now experience the variable force which would be calculated by the product of mass of the bead and the acceleration of the GFS. […]

[3] = molecular target: T2, smooth muscle myosin S2 peptide (MYH11) (Homo sapiens, UniProt P35749); test: FRET of smooth muscle myosin S2 peptide dimer with anti-S2 peptides; assay type: binding; details: Smooth peptide with Stabilizer
T2 construct: A 21 residue peptide of the S2 region of MYH11 was matched to the previously synthesized S2 peptide; host or cells: chemical synthesis
Excerpt: Human smooth muscle myosin heavy chain (MYH11) is a part of the non-striated muscle. This gene can be found within esophagus, endometrium, duodenum, etc. A 21 residue peptide of the S2 region of MYH11 was matched to the previously synthesized S2 peptide of cardiac isoform and chemically synthesized 926-946. Generated amino acid sequence used is as follow: • Smooth: NH2-[…]—COOH (SEQ ID NO:11)
Resonance energy probes (donor and acceptor) were covalently attached to synthetic myosin S2 peptides of cardiac muscle, E930del cardiac muscle, E924K cardiac muscle, smooth muscle, and skeletal muscle (Aboonasrshiraz, N., 2020).
Acceptor probe was conjugated to muscle myosin S2 peptides at N-terminus. Muscle myosin S2 peptides were dissolved in 20 mM HEPES buffer at pH 8.0. And FITC was dissolved in few drops of N, N dimethyl formamide. Lastly, FITC and muscle myosin S2 peptide was reacted together in 1 to 1 molar ratio and was let to react for 120 minutes at room temperature. […]
In FRET assay, Fluorescein Isothiocyanate (FITC) functioned as fluorescent acceptor probe and Terbium Diethylene Triamine Pentaacetic Acid-Cytosine (Lanthanide-DTPA-Cytosine) functioned as donor probe. […] Lifetime of donor probe was measured in milliseconds.
The specificity of peptides were later tested on the myosin S2 of the smooth muscle (MYH11). […] Calculated separation distance in presence of the stabilizer peptide was 3.34 nm.

T2 sequence (P35749 926-946): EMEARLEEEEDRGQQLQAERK

Kd ([1]; from percentage contraction vs concentration, listed as destabilizer peptide, read-out: binding efficiency (Kd) to myofibrils) | EC50 ([1]; read-out: effective concentration on percentage of contraction in myofibrils) | Force required to uncoil S2 molecule [2] | TD (donor lifetime without acceptor) [3] | SMILES | concentration above which percentage contraction saturated [1] | maximum percentage contraction in myofibrils ([1]; in presence of destabilizer peptide)
7.88 nM and 7.8 nM | < 10 nM |  |  | CSCC[C@H](NC(=O)[C@H](CCC(=O)O)NC(=O)[C@H](CCCNC(=N)N)NC(=O)[C@H](CCC(=O)O)NC(=O)[C@H](CC(=O)O)NC(=O)[C@H](CCC(=O)O)NC(=O)[C@H](CC(C)C)NC(=O)[C@H](CCCNC(=N)N)NC(=O)[C@H](CCC(=O)O)NC(=O)[C@H](CC(N)=O)NC(=O)[C@H](CCSC)NC(=O)[C@@H](N)CCC(=O)O)C(=O)N[C@@H](CCCCN)C(=O)N[C@@H](C)C(=O)N[C@@H](CCC(=O)O)C(=O)N[C@@H](CC(C)C)C(=O)N[C@H](C(=O)N[C@@H](C)C(=O)N[C@@H](CCCCN)C(=O)O)[C@@H](C)O [Destabilizer] | above 40 nM | 43% and 41%
 |  | 1.07E+00 ± 8.28E−02 pN | 1.73E−03 | C[C@H](NC(=O)[C@H](CCCCN)NC(=O)[C@H](Cc1ccccc1)NC(=O)[C@H](CCCCN)NC(=O)[C@H](CCCCN)NC(=O)[C@H](CCCCN)NC(=O)[C@H](CCCCN)NC(=O)[C@H](CCCCN)NC(=O)[C@H](CCCCN)NC(=O)[C@H](CCCCN)NC(=O)[C@@H](N)CCCCN)C(=O)N[C@@H](CCCCN)C(=O)N[C@@H](CCCCN)C(=O)N[C@@H](CCCCN)C(=O)N[C@@H](CCCCN)C(=O)N[C@@H](CCCCN)C(=O)N[C@@H](CCCCN)C(=O)O [Stabilizer] |  | 

Reference: patent US12617818B2, “Compositions and methods for modulating myosin subfragment-2 coiled coil stability and methods for using them” (UNIVERSITY OF NORTH TEXAS, priority 2020, dated 2026)
